{"source": "patent US7276347B2", "about": "(priority 2004, dated 2007)", "key": {"[1]": {"system": "antibodies to HCY Oxime-BTG (example 4a)", "format": "binding, mice"}, "[2]": {"system": "monoclonal antibody to HCY Oxime-KLH (example 4b)", "format": "binding, mice"}}}
{"smiles": "O=C(O)CCCc1ccc(N(CCCl)CCCl)cc1", "note": "[Chlorambucil, chlorambucil]", "values": [{"measurement": "% Cross-Reactivity", "setting": "[1]", "value": "<0.3", "unit": "%"}, {"measurement": "IC 50", "setting": "[1]", "value": ">10,000 ng/ml"}, {"measurement": "% Cross-Reactivity", "setting": "[2]", "value": "<0.1", "unit": "%"}, {"measurement": "IC 50", "setting": "[2]", "value": ">100,000 ng/ml"}]}
{"smiles": "N[C@@H](Cc1ccc(N(CCCl)CCCl)cc1)C(=O)O", "note": "[Melphalan, melphalan]", "values": [{"measurement": "% Cross-Reactivity", "setting": "[1]", "value": "<0.3", "unit": "%"}, {"measurement": "IC 50", "setting": "[1]", "value": ">10,000 ng/ml"}, {"measurement": "% Cross-Reactivity", "setting": "[2]", "value": "<0.1", "unit": "%"}, {"measurement": "IC 50", "setting": "[2]", "value": ">100,000 ng/ml"}]}
{"smiles": "O=P1(N(CCCl)CCCl)NCCCO1", "note": "(stereo not drawn) [cyclophosphamide]", "values": [{"measurement": "% Cross-Reactivity", "setting": "[1]", "value": "<0.3", "unit": "%"}, {"measurement": "IC 50", "setting": "[1]", "value": ">10,000 ng/ml"}, {"measurement": "% Cross-Reactivity", "setting": "[2]", "value": "<0.1", "unit": "%"}, {"measurement": "IC 50", "setting": "[2]", "value": ">100,000 ng/ml"}]}
